Test results reported in patent publication US20130315834A1, “NANOPROBE COMPRISING GOLD COLLOID NANOPARTICLES FOR MULTIMODALITY OPTICAL IMAGING OF CANCER AND TARGETED DRUG DELIVERY FOR CANCER” (priority 2010, published 2013).

Columns and labels:
A-431 cell lines = assay: PDT in cellular model, white light, apoptosis/necrosis staining (Example 7); assay type: cell-based, human; settings: about 12 hours incubation, broadband white light; hypericin 2-10 μM
Method: After establishing the internalization and delivery capabilities of Hypericin-Au-EGFR probe, the therapeutic potential of the probe by conducting a PDT experiment in a cellular model is examined. Hypericin-Au-EGFR probe and various amounts of hypericin are incubated with A-431 cell lines for about 12 hours and PDT is conducted using a broadband excitation using white light. Post PDT images are recorded using a confocal fluorescence microscopy with differential staining for apoptosis in green (as indicated by the white encircled area) and necrosis in red (as shown by the lighter shade indicated by the white arrow) to assess the PDT effect.

CNE2 cells = assay: In-vitro uptake of hypericin, confocal fluorescence microscopy; assay type: cell-based; settings: 2 hypericin, about 6 hours, physiological conditions
Method: Confocal fluorescence microscopy is used to study CNE2 cells treated with 2 hypericin and A-431 cells treated with Hypericin-Au-EGFR theragnostic probe for about 6 hours under physiological conditions. […] This will be ideal for a probe for diagnosis and therapy.

A-431 cells = assay: as above; assay type: cell-based, human; settings: about 3 hours incubation, FIG. 9b
Method: Targeting and localization of the nanoprobes to cellular receptors is assessed using dark field contrast imaging and confocal fluorescence microscopy. Briefly, A-431 cells are incubated with the nanoprobes for about 3 hours at about 37° C. The cells are then washed in PBS, fixed in 2% paraformaldehyde for about 10 mins and mounted in Vectashield fluorescent mounting medium (Vector Laboratories, Burlingame, Calif.). The cells are visualized via dark field illumination system (CytoViva, Auburn, Ala.) attached to a Nikon Eclipse 80i microscope. The in-vitro localization of the nanoprobes is also assessed by exciting the cells using a 488 nm argon laser. Fluorescence emission in the wavelength range of 590-630 nm is split by a dichroic filter and detected through a band pass filter (BP-610 nm; Omega Optical, Brattleboro, Vt.). […]
Confocal fluorescence microscopy is used to study CNE2 cells treated with 2 hypericin and A-431 cells treated with Hypericin-Au-EGFR theragnostic probe for about 6 hours under physiological conditions. […]
Using confocal laser scanning microscope, the in-vitro uptake of hypericin-GNP labeled with anti-EGFR after about 3 hours incubation is also assessed. […] The intensity of hypericin fluorescence following incubation of hypericin alone is greater compared to incubating the cells with bioconjugated hypericin GNP conjugate (FIG. 9b). […]

In the case of `Cc1cc(O)c2c(=O)c3c(O)cc(O)c4c5c(O)cc(O)c6c(=O)c7c(O)cc(C)c8c1c2c(c34)c(c78)c65` [hypericin], the “mode of cell death after PDT” value (A-431 cell lines) is reported as “cell death via necrosis”, the “hypericin fluorescence in cells” value (CNE2 cells) is reported as “hypericin fluorescence from within the cell” and the “intensity of hypericin fluorescence, hypericin alone compared to bioconjugated hypericin GNP” value (A-431 cells) is reported as “greater”.
